Source: ChEMBL document CHEMBL1141714, “Peptidyl epoxides extended in the P' direction as cysteine protease inhibitors: effect on affinity and mechanism of inhibition” (Bioorg Med Chem, 2008)

Key:
[1] = target: Cathepsin B (Homo sapiens, UniProt P07858); test: Binding affinity to cathepsin B treated up to 2 hrs at 37degC by Dixon plot
[2] = target: T1, Papain (Carica papaya, UniProt P00784); test: Binding affinity to Carica papaya papain treated up to 2 hrs at 25 degC by Dixon plot
T1 sequence (P00784 whole entry): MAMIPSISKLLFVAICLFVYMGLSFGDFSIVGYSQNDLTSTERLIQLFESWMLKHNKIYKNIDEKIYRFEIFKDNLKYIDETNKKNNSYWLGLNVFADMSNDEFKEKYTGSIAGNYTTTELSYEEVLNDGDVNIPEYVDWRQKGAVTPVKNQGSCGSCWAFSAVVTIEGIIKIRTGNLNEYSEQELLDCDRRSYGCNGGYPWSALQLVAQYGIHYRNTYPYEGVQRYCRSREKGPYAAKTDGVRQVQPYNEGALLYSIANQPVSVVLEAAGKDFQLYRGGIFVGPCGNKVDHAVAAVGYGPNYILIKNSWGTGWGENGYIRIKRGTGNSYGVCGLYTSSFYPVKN

Ki [1]	Ki [2]	SMILES
1020 µM	390 µM	O=C(N[C@@H](Cc1ccccc1)C(=O)NCC1CO1)OCc1ccccc1 (stereo partly specified)
244 µM	73 µM	COC(=O)[C@H](C)NC(=O)[C@H](C)NC(=O)C[C@@H]1O[C@H]1CNC(=O)[C@H](Cc1ccccc1)NC(=O)OCc1ccccc1
94 µM	18 µM	COC(=O)[C@H](C)NC(=O)[C@H](C)NC(=O)C[C@H]1O[C@H]1CNC(=O)[C@H](Cc1ccccc1)NC(=O)OCc1ccccc1
